Experimental data from patent US10597375B2, “Halogen-substituted heterocyclic compound” (UBE INDUSTRIES, LTD., priority 2012, dated 2020).

Key:
[1] = test system: LPA-induced histamine release; test: LPA-induced histamine release test in mouse; assay type: in vivo; conditions: male CD1 mice; oral dose of 10 mg/kg; LPA 300 μg/mouse via tail vein 4 hours after administration; blood 2 minutes after LPA; read-out: efficacy rate (rate of individuals which showed the inhibition rate of 80% or more of plasma histamine)
Method: LPA-Induced Histamine Release Test in Mouse
LPA-induced histamine release test in mouse was carried out according to a method by Swaney et al. (The Journal of Pharmacology and Experimental Therapeutics, 336 (2011), pages 693-700). The test compound was suspended in 0.5% methylcellulose solution (133-14255, Wako), and orally administered to male CD1 mice (body weight: 30 to 40 g, supplied by Charles River Laboratories Japan) at a dose of 10 mL/kg. 4 hours after administration, LPA (857130P, Avanti) dissolved in a 0.1% BSA-containing PBS was administered via the tail vein (300 μg/mouse). Immediately, the mouse was anesthetized with isoflurane, and blood was collected via a vein 2 minutes after the administration of LPA. The blood was put into a test tube containing EDTA, and centrifuged at 4° C., 2,000×g, for 10 minutes to obtain the plasma.
The histamine concentration in the plasma was measured by EIA kit (62HTMPEB, Cisbio Bioassays).

[2] = test system: A2058 human melanoma cells; test: Cell migration test (LPA-induced, Chemo-Tx); assay type: cell-based; conditions: LPA 100 nM, 3 hours, read-out: IC50: concentration of the test compound which inhibits the cell migration activity of LPA by 50%
Summary of the method: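 A2058 cells, serum-starved 24 h, pretreated 15 min at 37° C with compound (0.5% DMSO final). Migration over 3 h at 37° C through fibronectin-coated filters toward 100 nM LPA (final). Migrated cells stained, absorbance at 570 nm; IC50 from non-linear regression.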

human LPA1 receptor = molecular target: T1, human LPA1 receptor (Homo sapiens, UniProt Q92633); test: Binding test of GTPγS to LPA1 receptor; assay type: biochemical; conditions: membrane fraction of RH 7777 cells expressed with human LPA1 receptor; LPA 100 nM; read-out: IC50: concentration of the test compound which inhibits the binding of LPA1 receptor and [35S]GTPγS by 50%
T1 construct: purchased ChanTest A324; host or cells: RH 7777 cells (recombinant expression; membrane fraction)
T1 sequence (Q92633 whole entry): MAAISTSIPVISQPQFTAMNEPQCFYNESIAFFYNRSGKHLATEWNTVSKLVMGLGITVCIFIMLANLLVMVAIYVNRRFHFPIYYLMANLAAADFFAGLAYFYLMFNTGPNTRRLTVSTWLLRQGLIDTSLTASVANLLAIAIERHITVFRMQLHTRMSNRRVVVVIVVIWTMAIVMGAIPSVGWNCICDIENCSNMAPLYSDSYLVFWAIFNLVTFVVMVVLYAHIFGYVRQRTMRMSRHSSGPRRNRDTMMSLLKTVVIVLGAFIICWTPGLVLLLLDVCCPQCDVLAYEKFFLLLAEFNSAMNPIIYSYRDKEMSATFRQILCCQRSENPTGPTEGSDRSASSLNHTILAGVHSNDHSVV
Method: Binding test of GTPγS to LPA1 receptor
5 μg of the membrane fraction of RH 7777 cells expressed with human LPA1 receptor (A324, ChanTest) was suspended in a reaction buffer (20 mM HEPES, 100 mM NaCl, 10 mM MgCl2, 10 μM GDP, 5 μg saponin, 0.2% BSA, 0.1 nM [^35S]GTPγS (NEG030X, Perkin Elmer), pH 7.4), and the test compound dissolved in DMSO in various concentrations was added. After preincubation at 30° C. for 15 minutes, LPA (L7260, Sigma, the final concentration of 100 nM) was added, and the suspension was incubated at 30° C. for 30 minutes. The membrane fraction was collected onto a glass fiber filter (GF/B, Whatman) by using a cell harvester (M30, Brandel), and washed with a 10 mM phosphate buffer (pH 7.4). The radioactivity of the membrane fraction was measured using a liquid scintillation analyzer (2900TR, Packard) and the concentration of the test compound which inhibits the binding of LPA1 receptor and [^35S]GTPγS by 50%, (1050) was determined by non-linear regression analysis using EXSAS (version 7.6.0, Arm Systex).

IC50 [2] [nM]	IC50 (human LPA1 receptor) [nM]	Structure (SMILES)	responders at 10 mg/kg [1] [%]
≤ 200	≤ 200	C[C@@H](OC(=O)Nc1cc(F)sc1-c1ccc(-c2ccc(C3(C(=O)O)CC3)cc2)cc1)c1ccc(Cl)cc1 [I-126, (R)-1-{4′-[3-({[1-(4-Chlorophenyl)ethoxy]carbonyl}amino)-5-fluorothiophen-2-yl]-[1,1′-biphenyl]-4-yl}cyclopropanecarboxylic acid]	≥ 50
≤ 200	≤ 200	C[C@@H](OC(=O)Nc1cc(F)sc1-c1ccc(-c2ccc(C3(C(=O)O)CC3)cc2)cc1)c1ccc(F)cc1Cl [I-152, (R)-1-{4′-[3-({[1-(2-Chloro-4-fluorophenyl)ethoxy]carbonyl}amino)-5-fluorothiophen-2-yl]-[1,1′-biphenyl]-4-yl}cyclopropanecarboxylic acid]	≥ 50

Further lines, the compound ahead of its results:

Structure (SMILES)	IC50 [2] [nM]	IC50 (human LPA1 receptor) [nM]	responders at 10 mg/kg [1] [%]
C[C@@H](OC(=O)Nc1cc(F)sc1-c1ccc(-c2ccc(C3(C(=O)O)CC3)cc2)cc1)c1ccccc1 [I-100, (R)-1-[4′-(5-Fluoro-3-{[(1-phenylethoxy)carbonyl]amino}thiophen-2-yl)-[1,1′-biphenyl]-4-yl]cyclopropanecarboxylic acid]	≤ 200	≤ 200	≥ 50
C[C@@H](OC(=O)Nc1cc(F)sc1-c1ccc(-c2ccc(C3(C(=O)O)CC3)cc2)cc1)c1ccccc1F [I-104, (R)-1-{4′-[5-Fluoro-3-({[1-(2-fluorophenyl)ethoxy]carbonyl}amino)thiophen-2-yl]-[1,1′-biphenyl]-4-yl}cyclopropanecarboxylic acid]	≤ 200	≤ 200	≥ 50
C[C@@H](OC(=O)Nc1cc(F)sc1-c1ccc(-c2ccc(C3(C(=O)O)CC3)cc2)cc1)c1ccc(F)cc1 [I-112, (R)-1-{4′-[5-Fluoro-3-({[1-(4-fluorophenyl)ethoxy]carbonyl}amino)thiophen-2-yl]-[1,1′-biphenyl]-4-yl}cyclopropanecarboxylic acid]	≤ 200	≤ 200	≥ 50
C[C@@H](OC(=O)Nc1cc(F)sc1-c1ccc(-c2ccc(C3(C(=O)O)CC3)cc2)cc1)c1ccccc1Cl [I-122, (R)-1-{4′-[3-({[1-(2-Chlorophenyl)ethoxy]carbonyl}amino)-5-fluorothiophen-2-yl]-[1,1′-biphenyl]-4-yl}cyclopropanecarboxylic acid]	≤ 200	≤ 200	≥ 50
